Experimental data published in PubChem BioAssay AID330 (DTP/NCI, 2004).
Values joined by “and” are separate entries in the source; they are usually repeats but may differ in a detail not shown here. Equal entries are not always repeated. Inconclusive results and toxic doses are left out.

Tested on: P388 leukemia ip, CD2F1 mice, survival T/C
Test: NCI In Vivo Anticancer Drug Screen. Data for tumor model P388 Leukemia (intraperitoneal) in CD2F1 (CDF1) mice
Settings: endpoint: median survival time, higher = longer survival
Method in brief: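 Mice carrying the transplanted tumor received test compound or vehicle. Survival was recorded in each group, and the value is the treated-group measurement divided by that of the vehicle-treated control group.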

[1] = dose: 12.5 mg/kg/injection, schedule: Q01DX009 (ip), vehicle: saline
[2] = dose: 25.0 mg/kg/injection, schedule: Q01DX009 (ip), vehicle: saline
[3] = dose: 50.0 mg/kg/injection, schedule: Q01DX009 (ip), vehicle: saline
[4] = dose: 100.0 mg/kg/injection, schedule: Q01DX001 (ip), vehicle: saline
[5] = dose: 200.0 mg/kg/injection, schedule: Q01DX001 (ip), vehicle: saline
[6] = dose: 400.0 mg/kg/injection, schedule: Q01DX001 (ip), vehicle: saline
[7] = dose: 50.0 mg/kg/injection, schedule: Q01DX009 (ip), vehicle: Klucel (hydroxypropylcellulose) (HPC)
[8] = dose: 100.0 mg/kg/injection, schedule: Q01DX009 (ip), vehicle: Klucel (hydroxypropylcellulose) (HPC)
[9] = dose: 200.0 mg/kg/injection, schedule: Q01DX009 (ip), vehicle: Klucel (hydroxypropylcellulose) (HPC)
[10] = dose: 100.0 mg/kg/injection, schedule: Q04DX003 (ip), vehicle: saline with Tween-80
[11] = dose: 200.0 mg/kg/injection, schedule: Q04DX003 (ip), vehicle: saline with Tween-80
[12] = dose: 50.0 mg/kg/injection, schedule: Q01DX009 (ip), vehicle: saline with Tween-80
[13] = dose: 100.0 mg/kg/injection, schedule: Q01DX009 (ip), vehicle: saline with Tween-80
[14] = dose: 200.0 mg/kg/injection, schedule: Q01DX009 (ip), vehicle: saline with Tween-80
[15] = dose: 50.0 mg/kg/injection, schedule: Q04DX003 (ip), vehicle: saline with Tween-80
[16] = dose: 100.0 mg/kg/injection, schedule: Q01DX009 (ip), vehicle: saline
[17] = dose: 200.0 mg/kg/injection, schedule: Q01DX009 (ip), vehicle: saline
[18] = dose: 50.0 mg/kg/injection, schedule: Q04DX003 (ip), vehicle: saline

## CC1(C(=O)O)CCCC2(C)C3=CC(=O)OC3(OO)CCC12 (stereo unspecified)
[1]
  T/C: 104 % of control
[2]
  T/C: 101 % of control
[3]
  T/C: 101 % of control

## Cn1c(-c2ccccc2)c(C(=O)CC(=O)CN2CCOCC2)c2ccccc21
[4]
  T/C: 98 % of control
[5]
  T/C: 108 % of control
[6]
  T/C: 97 % of control

## CCCCCCCCCCCCOC(=O)C(N)Cc1ccc(O)cc1 (stereo unspecified)
[7]
  T/C: 98 % of control
[8]
  T/C: 102 % of control
[9]
  T/C: 97 % of control

## CN(C)C(=O)C1CCC1
[10]
  T/C: 95 % of control
[11]
  T/C: 100 % of control
dose: 400.0 mg/kg/injection, schedule: Q04DX003 (ip), vehicle: saline with Tween-80
  T/C: 100 % of control

## CCCCCCNP1(NCCCCCC)=NP(NCCCCCC)(NCCCCCC)=NP(NCCCCCC)(NCCCCCC)=NP(NCCCCCC)(NCCCCCC)=N1
dose: 37.5 mg/kg/injection, schedule: Q01DX005 (ip), vehicle: Klucel (hydroxypropylcellulose) (HPC)
  T/C: 90 % of control
dose: 75.0 mg/kg/injection, schedule: Q01DX005 (ip), vehicle: Klucel (hydroxypropylcellulose) (HPC)
  T/C: 97 % of control

## CNCCC(Oc1ccc(C(F)(F)F)cc1)c1ccccc1 (stereo unspecified)
dose: 25.0 mg/kg/injection, schedule: Q04DX002 (ip), vehicle: saline with Tween-80
  T/C: 106 % of control
dose: 50.0 mg/kg/injection, schedule: Q04DX002 (ip), vehicle: saline with Tween-80
  T/C: 106 % of control
dose: 100.0 mg/kg/injection, schedule: Q04DX002 (ip), vehicle: saline with Tween-80
  T/C: 106 % of control

## CC(=O)OCC1OC(n2cc(F)c(=O)[nH]c2=O)CC1OC(C)=O (stereo unspecified)
[12]
  T/C: 100 % of control
[13]
  T/C: 118 % of control
[14]
  T/C: 86 % of control

## CC1CCCCC1O (stereo unspecified)
[15]
  T/C: 110 % of control
[10]
  T/C: 115 % of control
[11]
  T/C: 115 % of control

## CCCCC/C=C/CCCCCCC1C=CCC1 (stereo unspecified)
[4]
  T/C: 101 % of control
[5]
  T/C: 100 % of control
[6]
  T/C: 100 % of control

## COc1ccc2c(C)cc(OC)nc2c1
[12]
  T/C: 94 % of control
[13]
  T/C: 91 % of control
[14]
  T/C: 97 % of control

## C=C1SC(=Nc2cccc(OC)c2)N(c2nc(Cl)nc(Cl)n2)C1(C)C
[3]
  T/C: 99 % of control
[16]
  T/C: 102 % of control
[17]
  T/C: 98 % of control

## COc1cccc2c1C(=O)c1c(O)c3c(c(O)c1C2=O)CC(O)CC3OC1CC(N)C(O)C(C)O1 (stereo unspecified)
dose: 3.13 mg/kg/injection, schedule: Q01DX009 (ip), vehicle: water
  T/C: 157 % of control
dose: 6.25 mg/kg/injection, schedule: Q01DX009 (ip), vehicle: water
  T/C: 173 % of control

## CN(C)NC(=O)[S-].CN(C)NC(=O)[S-].[Ni]
dose: 12.5 mg/kg/injection, schedule: Q01DX001 (ip), vehicle: saline with Tween-80
  T/C: 103 % of control
dose: 25.0 mg/kg/injection, schedule: Q01DX001 (ip), vehicle: saline with Tween-80
  T/C: 111 % of control
dose: 50.0 mg/kg/injection, schedule: Q01DX001 (ip), vehicle: saline with Tween-80
  T/C: 106 % of control and 96 % of control
dose: 100.0 mg/kg/injection, schedule: Q01DX001 (ip), vehicle: saline with Tween-80
  T/C: 109 % of control

## CC1CC(Cc2ccccc2)C(=O)CC(C)(C)CC(=O)O1 (stereo unspecified)
[18]
  T/C: 100 % of control and 103 % of control and 106 % of control

## CN(C)CCC(=O)c1ccc(Cl)c(Cl)c1
[7]
  T/C: 107 % of control
[3]
  T/C: 108 % of control
[8]
  T/C: 109 % of control
[16]
  T/C: 110 % of control
[17]
  T/C: 109 % of control

## COc1cc2c(cc1C1CCCCCc3c1n(C)c1ccccc31)C1CCCCC1N2C (stereo unspecified)
dose: 12.5 mg/kg/injection, schedule: Q01DX001 (ip), vehicle: distilled water + Tween-80
  T/C: 108 % of control
dose: 25.0 mg/kg/injection, schedule: Q01DX001 (ip), vehicle: distilled water + Tween-80
  T/C: 116 % of control
dose: 50.0 mg/kg/injection, schedule: Q01DX001 (ip), vehicle: distilled water + Tween-80
  T/C: 101 % of control
dose: 100.0 mg/kg/injection, schedule: Q01DX001 (ip), vehicle: distilled water + Tween-80
  T/C: 111 % of control
dose: 200.0 mg/kg/injection, schedule: Q01DX001 (ip), vehicle: distilled water + Tween-80
  T/C: 111 % of control

## c1ccc(CC[n+]2ccccc2)cc1
[1]
  T/C: 88 % of control
[2]
  T/C: 87 % of control

## CC(=O)Nc1ccc[nH]c1=O
dose: 25.0 mg/kg/injection, schedule: Q01DX009 (ip), vehicle: Klucel (hydroxypropylcellulose) (HPC)
  T/C: 108 % of control and 96 % of control
[2]
  T/C: 99 % of control and 110 % of control
[7]
  T/C: 99 % of control and 104 % of control
[3]
  T/C: 108 % of control and 92 % of control
[8]
  T/C: 99 % of control and 104 % of control
[16]
  T/C: 103 % of control and 117 % of control
[9]
  T/C: 101 % of control and 96 % of control
[17]
  T/C: 101 % of control and 103 % of control
dose: 400.0 mg/kg/injection, schedule: Q01DX009 (ip), vehicle: Klucel (hydroxypropylcellulose) (HPC)
  T/C: 109 % of control and 96 % of control
dose: 400.0 mg/kg/injection, schedule: Q01DX009 (ip), vehicle: saline
  T/C: 104 % of control and 108 % of control

## CC1(C)CC(=O)C=C(OS(=O)(=O)C(F)(F)F)C1
dose: 12.5 mg/kg/injection, schedule: Q01DX009 (ip), vehicle: distilled water + Tween-80
  T/C: 111 % of control
dose: 25.0 mg/kg/injection, schedule: Q01DX009 (ip), vehicle: distilled water + Tween-80
  T/C: 112 % of control
dose: 50.0 mg/kg/injection, schedule: Q01DX009 (ip), vehicle: distilled water + Tween-80
  T/C: 98 % of control

## O=[N+]([O-])C1C2C=CC(C2)C1C(Cl)(Cl)Cl (stereo unspecified)
dose: 0.19 mg/kg/injection, schedule: Q01DX009 (ip), vehicle: saline with Tween-80
  T/C: 101 % of control
dose: 0.39 mg/kg/injection, schedule: Q01DX009 (ip), vehicle: saline with Tween-80
  T/C: 100 % of control
dose: 0.78 mg/kg/injection, schedule: Q01DX009 (ip), vehicle: saline with Tween-80
  T/C: 98 % of control and 99 % of control

## CCO/C=C\Br
dose: 60.0 mg/kg/injection, schedule: Q01DX005 (ip), vehicle: saline with Tween-80
  T/C: 105 % of control
dose: 120.0 mg/kg/injection, schedule: Q01DX005 (ip), vehicle: saline with Tween-80
  T/C: 99 % of control
dose: 240.0 mg/kg/injection, schedule: Q01DX005 (ip), vehicle: saline with Tween-80
  T/C: 100 % of control

## CC[C@@]1(O)CC(OC2CC(N3CCOCC3)C(O)C(C)O2)c2c(O)c3c(c(O)c2[C@H]1O)C(=O)c1cccc(O)c1C3=O (stereo partly specified)
dose: 0.89 mg/kg/injection, schedule: Q04DX003 (iv), vehicle: saline
  T/C: 163 % of control
dose: 1.33 mg/kg/injection, schedule: Q04DX003 (iv), vehicle: saline
  T/C: 186 % of control
dose: 2.0 mg/kg/injection, schedule: Q04DX003 (iv), vehicle: saline
  T/C: 209 % of control
dose: 3.0 mg/kg/injection, schedule: Q04DX003 (iv), vehicle: saline
  T/C: 242 % of control
dose: 4.5 mg/kg/injection, schedule: Q04DX003 (iv), vehicle: saline
  T/C: 113 % of control

## CC(=O)N1CCc2cc(N)ccc21
[12]
  T/C: 95 % of control
[13]
  T/C: 86 % of control
[14]
  T/C: 90 % of control

## CCSc1nc(C)cc(Cl)n1
[15]
  T/C: 100 % of control
[10]
  T/C: 100 % of control
[11]
  T/C: 113 % of control

## CN(C)CCCN1CCC2(CCSCC2)C1
dose: 50.0 mg/kg/injection, schedule: Q01DX005 (ip), vehicle: saline
  T/C: 102 % of control
dose: 100.0 mg/kg/injection, schedule: Q01DX005 (ip), vehicle: saline
  T/C: 99 % of control
dose: 200.0 mg/kg/injection, schedule: Q01DX005 (ip), vehicle: saline
  T/C: 91 % of control

## CCCCN(CCCC)CC(O)c1c2cccc(Cl)c2cc2c(Cl)cccc12 (stereo unspecified)
[12]
  T/C: 98 % of control and 99 % of control
[13]
  T/C: 99 % of control and 92 % of control
[14]
  T/C: 90 % of control
dose: 400.0 mg/kg/injection, schedule: Q01DX009 (ip), vehicle: saline with Tween-80
  T/C: 90 % of control

## CCN(C(=O)CCl)C(C)(C)C(SSSC(c1ccc(Cl)cc1)C(C)(C)N(CC)C(=O)CCl)c1ccc(Cl)cc1 (stereo unspecified)
[18]
  T/C: 104 % of control
dose: 100.0 mg/kg/injection, schedule: Q04DX003 (ip), vehicle: saline
  T/C: 113 % of control
dose: 200.0 mg/kg/injection, schedule: Q04DX003 (ip), vehicle: saline
  T/C: 109 % of control

## O=C1OC2(CCCC2)OC(=O)C1=Cc1ccc([N+](=O)[O-])s1
[12]
  T/C: 115 % of control
[13]
  T/C: 114 % of control

## N#CC(C#N)=NNc1c(Br)cc(Cl)cc1Br
dose: 1.56 mg/kg/injection, schedule: Q01DX009 (ip), vehicle: Klucel (hydroxypropylcellulose) (HPC)
  T/C: 104 % of control
dose: 3.12 mg/kg/injection, schedule: Q01DX009 (ip), vehicle: Klucel (hydroxypropylcellulose) (HPC)
  T/C: 105 % of control
dose: 6.25 mg/kg/injection, schedule: Q01DX009 (ip), vehicle: Klucel (hydroxypropylcellulose) (HPC)
  T/C: 116 % of control and 97 % of control
